Measured values taken from ChEMBL document CHEMBL5244230, “Artemisinin-derived hybrids and their anticancer activity” (Eur J Med Chem, 2020).
“And” between values parts separate entries of the source, which are not always exact repeats. Equal entries are not always repeated.

How the values were obtained:
MCF7 [1] = assay: Anticancer activity against human MCF7 cells; format: functional, cell-based
[2] = Potency index, ratio of dihydroartemisinin IC50 to test compound IC50 for anticancer activity against mouse […] cells; format: functional
[3] = Potency index, ratio of dihydroartemisinin IC50 to test compound IC50 for anticancer activity against human Lu1 cells; format: functional
HL-60 [4] = assay: Anticancer activity against human HL-60 cells; format: functional, cell-based
HL-60 [5] = assay: Potency index, ratio of dihydroartemisinin IC50 to test compound IC50 for anticancer activity against human HL-60 cells; format: functional
[6] = Anticancer activity against human Lu1 cells; format: functional, cell-based
MCF7 [7] = assay: Anticancer activity against human MCF7 cells assessed as inhibition of cell growth; format: functional, cell-based
MCF7 [8] = assay: Potency index, ratio of dihydroartemisinin IC50 to test compound IC50 for anticancer activity against human MCF7 cells; format: functional
P388 = assay: Anticancer activity against mouse P388 cells; format: functional, cell-based
HEp-2 = assay: Antiproliferative activity against human HEp-2 cells assessed as inhibition of cell growth at 50 uM relative to control; format: functional; set-up: scale not given: the % may be the effect or the level left
HEK293 = assay: Antiproliferative activity against human HEK293 cells; format: functional, cell-based
Breast carcinoma cell [9] = assay: Antiproliferative activity against human Breast cancer cell line; format: functional, cell-based
THP-1 = assay: Antiproliferative activity against human THP-1 cells assessed as inhibition of cell growth at 50 uM relative to control; format: functional; set-up: scale not given: the % may be the effect or the level left
[10] = Cytotoxicity against human HCEC cells; format: toxicity, cell-based
[11] = Antiproliferative activity against human leukaemia cell line; format: functional, cell-based
COLO 205 = assay: Antiproliferative activity against human COLO 205 cells; format: functional, cell-based
PC-3 = assay: Antiproliferative activity against human PC-3 cells; format: functional, cell-based
SMMC-7721 = assay: Antiproliferative activity against human SMMC-7721 cells; format: functional, cell-based
MDA-MB-231 [12] = assay: Antiproliferative activity against human MDA-MB-231 cells assessed as reduction in cell viability; format: functional, cell-based
HepG2 = assay: Antiproliferative activity against human HepG2 cells assessed as cell growth inhibition by MTT assay; format: functional, cell-based
MDA-MB-231 [13] = assay: Antiproliferative activity against human MDA-MB-231 cells; format: functional, cell-based; details: Homo sapiens, MDA-MB-231
HCT-15 [14] = assay: Antiproliferative activity against human HCT-15 cells assessed as inhibition of cell growth at 50 uM relative to control; format: functional; set-up: scale not given: the % may be the effect or the level left
[15] = Antiproliferative activity against human Renal carcinoma cell; format: functional, cell-based
A-431 = assay: Antiproliferative activity against human A-431 cells; format: functional, cell-based
Melanoma cell line [16] = assay: Antiproliferative activity against human Melanoma cell line; format: functional, cell-based
K562 = assay: Antiproliferative activity against human K562 cells; format: functional, cell-based
HCT-15 [17] = assay: Antiproliferative activity against human HCT-15 cells assessed as cell growth inhibition by MTT assay; format: functional, cell-based
A549 [18] = assay: Antiproliferative activity against human A549 cells assessed as inhibition of cell growth at 50 uM relative to control; format: functional; set-up: scale not given: the % may be the effect or the level left
Ovarian cancer cell line [19] = assay: Antiproliferative activity against human Ovarian cancer cell line; format: functional, cell-based
A549 [20] = assay: Antiproliferative activity against human A549 cells; format: functional, cell-based
A549 [21] = assay: Antiproliferative activity against human A549 cells assessed as cell growth inhibition by MTT assay; format: functional, cell-based
HeLa [22] = assay: Antiproliferative activity against human HeLa cells; format: functional, cell-based
HCT-116 [23] = assay: Antiproliferative activity against human HCT-116 cells; format: functional, cell-based
[24] = Antiproliferative activity against human 1205Lu cells; format: functional, cell-based
HeLa [25] = assay: Potency index, ratio of artesunate IC50 to test compound IC50 for antiproliferative activity against human HeLA cells assessed as inhibition of cell growth; format: functional
[26] = Cytotoxicity against human HFF cells; format: toxicity, cell-based
HCT-116 [27] = assay: Potency index, ratio of artesunate IC50 to test compound IC50 for antiproliferative activity against human HCT-116 cells assessed as inhibition of cell growth; format: functional
[28] = Potency index, ratio of artesunate IC50 to test compound IC50 for antiproliferative activity against human 1205Lu cells assessed as inhibition of cell growth; format: functional
C2G cell line = assay: Antiproliferative activity against mouse C2G cell line; format: functional, cell-based
TRAMP-C1A [29] = assay: Antiproliferative activity against mouse TRAMP-C1A cells; format: functional, cell-based
C2D cell line = assay: Antiproliferative activity against mouse C2D cell line; format: functional, cell-based
TRAMP-C2H [30] = assay: Antiproliferative activity against mouse TRAMP-C2H cells; format: functional, cell-based
Breast carcinoma cell [31] = assay: Potency index, ratio of artemisinin IC50 to test compound IC50 for antiproliferative activity against human Breast carcinoma cell assessed as inhibition of cell growth; format: functional
Prostatic carcinoma cell = assay: Potency index, ratio of artemisinin IC50 to test compound IC50 for antiproliferative activity against human Prostatic carcinoma cell assessed as inhibition of cell growth; format: functional
Melanoma cell line [32] = assay: Potency index, ratio of artemisinin IC50 to test compound IC50 for antiproliferative activity against human Melanoma cell line assessed as inhibition of cell growth; format: functional
P388/ADR = assay: Potency index, ratio of doxorubicin IC50 to test compound IC50 for antiproliferative activity against mouse P388/ADR cells assessed as reduction in cell viability measured after 72 hrs; format: functional
leukaemia cell line = assay: Potency index, ratio of artemisinin IC50 to test compound IC50 for antiproliferative activity against human leukaemia cell line assessed as inhibition of cell growth; format: functional
Ovarian cancer cell line [33] = assay: Potency index, ratio of artemisinin IC50 to test compound IC50 for antiproliferative activity against human Ovarian cancer cell line assessed as inhibition of cell growth; format: functional
[34] = target: c-Jun N-terminal kinase, JNK (Homo sapiens, UniProt P45983+P53779+P45984); assay: Inhibition of N-terminal c-Jun phosphorylation in human HeLa cells; format: cell-based
LNCaP = assay: Cytotoxicity against human LNCaP cells assessed as inhibition of cell growth measured for 72 hrs by MTT assay; format: functional
Leukemia cell [35] = assay: Potency index, ratio of artesunate IC50 to test compound IC50 for antiproliferative activity against human Leukemia cell assessed as inhibition of cell growth; format: functional
HeLa [36] = assay: Antiproliferative activity against human HeLa cells assessed as reduction in cell viability; format: functional, cell-based
Leukemia cell [37] = assay: Antiproliferative activity against human Leukemia cell assessed as reduction in cell viability; format: functional, cell-based
TRAMP-C1A [38] = assay: Cytotoxicity against mouse TRAMP-C1A cells assessed as inhibition of cell growth measured for 72 hrs by MTT assay; format: functional
HCT-116 [39] = assay: Antiproliferative activity against human HCT-116 cells assessed as reduction in cell viability; format: functional, cell-based; details: hct-116
TRAMP-C2H [40] = assay: Cytotoxicity against mouse TRAMP-C2H cells assessed as inhibition of cell growth measured for 72 hrs by MTT assay; format: functional

SMILES: CC1CCNC(C(=O)c2ccc(-n3cc(CO[C@H]4O[C@@H]5O[C@@]6(C)CC[C@H]7[C@H](C)CC[C@@H]([C@H]4C)[C@@]57OO6)nn3)cc2)C1 (stereo partly drawn)
- IC50 (MCF7 [1]): 2500 nM
- Ratio IC50 [2]: 10.5
- Ratio IC50 [3]: 10.5
- IC50 (HL-60 [4]): 2500 nM
- Ratio IC50 (HL-60 [5]): 10.5
- IC50 [6]: 2500 nM
- IC50 (MCF7 [7]): 2500 nM
- Ratio IC50 (MCF7 [8]): 10.5
- IC50 (P388): 2500 nM

SMILES: C[C@@H]1CC[C@H]2[C@@H](C)C(=O)O[C@@H]3O[C@@]4(C)CC[C@@H]1[C@]32OO4 [ARTEMISININ]
- Activity (HEp-2): 21%
- IC50 (HEK293): 39000 nM
- IC50 (Breast carcinoma cell [9]): ≥ 40000 nM
- IC50 (MCF7 [1]): > 50000 nM
- Activity (THP-1): 21%
- IC50 [10]: > 50000 nM
- IC50 [11]: ≥ 40000 nM
- IC50 (COLO 205): 39000 nM
- IC50 (PC-3): 39000 nM
- IC50 (SMMC-7721): 440 nM
- IC50 (MDA-MB-231 [12]): > 50000 nM
- IC50 (HepG2): > 300000 nM
- IC50 (MDA-MB-231 [13]): 39000 nM
- Activity (HCT-15 [14]): 21%
- IC50 [15]: ≥ 40000 nM
- IC50 (A-431): 39000 nM
- IC50 (Melanoma cell line [16]): ≥ 40000 nM
- IC50 (K562): 39000 nM
- IC50 (HCT-15 [17]): > 300000 nM
- Activity (A549 [18]): 21%
- IC50 (Ovarian cancer cell line [19]): ≥ 40000 nM
- IC50 (A549 [20]): > 50000 nM
- IC50 (A549 [21]): > 300000 nM

SMILES: C[C@H]1[C@@H](CC(C[C@H]2O[C@@H]3O[C@@]4(C)CC[C@H]5[C@H](C)CC[C@@H]([C@H]2C)[C@@]35OO4)CS(=O)(=O)c2ccc(COC(=O)N(C)C)cc2)O[C@@H]2O[C@@]3(C)CC[C@H]4[C@H](C)CC[C@@H]1[C@@]24OO3 (stereo partly drawn)
- IC50 (HeLa [22]): 70 nM
- IC50 (HCT-116 [23]): 70 nM
- IC50 [24]: 70 nM
- Ratio IC50 (HeLa [25]): 12.6
- IC50 [26]: 4900 nM
- Ratio IC50 (HCT-116 [27]): 12.6
- Ratio IC50 [28]: 12.6

SMILES: C[C@H]1[C@@H](OC(COC(=O)c2cc[n+]([O-])cc2)C[C@H]2O[C@@H]3O[C@@]4(C)CC[C@H]5[C@H](C)CC[C@@H]([C@H]2C)[C@@]35OO4)O[C@@H]2O[C@@]3(C)CC[C@H]4[C@H](C)CC[C@@H]1[C@@]24OO3 (stereo partly drawn)
- IC50 (C2G cell line): 36.1 nM
- IC50 (TRAMP-C1A [29]): 36.1 nM
- IC50 (C2D cell line): 36.1 nM
- IC50 (TRAMP-C2H [30]): 36.1 nM

SMILES: C[C@H]1[C@@H](OC/C(=N\O)O[C@H]2O[C@@H]3O[C@@]4(C)CC[C@H]5[C@H](C)CC[C@@H]([C@H]2C)[C@@]35OO4)O[C@@H]2O[C@@]3(C)CC[C@H]4[C@H](C)CC[C@@H]1[C@@]24OO3
- IC50 (Breast carcinoma cell [9]): 55 nM
- Ratio IC50 (Breast carcinoma cell [31]): >=4
- Ratio IC50 (Prostatic carcinoma cell): >=4
- Ratio IC50 (Melanoma cell line [32]): >=4
- Ratio IC50 (P388/ADR): >=4
- IC50 [11]: 55 nM
- Ratio IC50 (leukaemia cell line): >=4
- Ratio IC50 (Ovarian cancer cell line [33]): >=4
- IC50 [15]: 55 nM
- IC50 (Melanoma cell line [16]): 55 nM
- IC50 (Ovarian cancer cell line [19]): 55 nM

SMILES: C[C@H]1[C@@H](CC(C[C@H]2O[C@@H]3O[C@@]4(C)CC[C@H]5[C@H](C)CC[C@@H]([C@H]2C)[C@@]35OO4)CS(=O)(=O)c2ccc(CO)cc2)O[C@@H]2O[C@@]3(C)CC[C@H]4[C@H](C)CC[C@@H]1[C@@]24OO3 (stereo partly drawn)
- IC50 (HeLa [22]): 70 nM
- IC50 (HCT-116 [23]): 70 nM
- IC50 [24]: 70 nM
- Ratio IC50 (HeLa [25]): 12.6
- IC50 [26]: 57500 nM
- Ratio IC50 (HCT-116 [27]): 12.6
- Ratio IC50 [28]: 12.6

SMILES: Nc1ccn([C@@H]2O[C@H](CO)[C@@H](O)C2(F)F)c(=O)n1 [GEMCITABINE]
- IC50 (C2G cell line): 3.7 nM

SMILES: Cc1cc(N/N=C/c2ccc(O[C@H]3O[C@@H]4O[C@@]5(C)CC[C@H]6[C@H](C)CC[C@@H]([C@H]3C)[C@@]46OO5)cc2)c2cc(Cl)ccc2n1
- IC50 (MCF7 [1]): 15000 nM
- IC50 [34]: 7500 nM

SMILES: C[C@H]1[C@@H](CC(COP(=O)(Oc2ccccc2)Oc2ccccc2)C[C@H]2O[C@@H]3O[C@]4(C)CC[C@H]5[C@H](C)CC[C@@H]([C@H]2C)[C@@]35OO4)O[C@@H]2O[C@@]3(C)CC[C@H]4[C@H](C)CC[C@@H]1[C@@]24OO3 (stereo partly drawn)
- GI50 (LNCaP): 34.4 nM
- Ratio IC50 (Leukemia cell [35]): 68.8
- IC50 (HeLa [36]): 40 nM
- Ratio IC50 (HeLa [25]): 68.8
- IC50 (Leukemia cell [37]): 100 nM
- GI50 (TRAMP-C1A [38]): 31.9 nM
- Ratio IC50 (HCT-116 [27]): 68.8
- IC50 (HCT-116 [39]): 40 nM and 190 nM
- GI50 (TRAMP-C2H [40]): 44.8 nM
